Here are results for 4 compounds from patent US6534542B2, “(2-hydroxy)ethyl-thioureas useful as modulators of α2B adrenergic receptors” (Allergen Sales, Inc., priority 2001, dated 2003).

One data set addresses T1, alpha2A receptor (Homo sapiens, UniProt P08913).
T1 construct: expressed in transfected cells; host or cells: NIH-3T3
T1 sequence (P08913 1-465): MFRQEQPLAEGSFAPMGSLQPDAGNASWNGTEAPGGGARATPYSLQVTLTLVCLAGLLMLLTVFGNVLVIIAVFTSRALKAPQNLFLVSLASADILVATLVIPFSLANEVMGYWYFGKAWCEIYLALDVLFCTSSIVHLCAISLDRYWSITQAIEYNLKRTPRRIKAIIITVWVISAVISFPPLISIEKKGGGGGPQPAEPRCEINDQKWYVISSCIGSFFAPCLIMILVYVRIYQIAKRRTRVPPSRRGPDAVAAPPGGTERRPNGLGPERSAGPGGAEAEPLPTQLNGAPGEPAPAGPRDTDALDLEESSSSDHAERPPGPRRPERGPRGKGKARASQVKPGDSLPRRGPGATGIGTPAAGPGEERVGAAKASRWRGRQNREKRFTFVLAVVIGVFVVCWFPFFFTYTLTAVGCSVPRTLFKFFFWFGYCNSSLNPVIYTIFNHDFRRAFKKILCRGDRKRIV
The experiment in a line: Receptor Selection and Amplification Technology (RSAT) assay, alpha2A. The class given is cell-based. The following applies: NIH-3T3 cells; for EC50: NA = not active at concentrations less than 10 micromolar, read-out: RSAT EC50 (nM) Alpha 2A; for fraction of activity of the standard (brimonidine) attained, Alpha 2A (number in parenthesis): ratio of maximal effect to that of standard full agonist brimonidine. An excerpt:
(§1) The compounds of the invention are agonists of α2 adrenergic receptors, particularly they tend to be specific or selective agonists of α2B and/or to a lesser extent α2C adrenergic receptors, in preference over α2A adrenergic receptors. […] Al., 1995, Pharmacol. Toxicol. 76, pp. 308-311 (incorporated herein by reference) and is also described below. Another reference pertinent to this assay is Conklin et al. (1993) Nature 363:274-6, also incorporated herein by reference.
(§2) The RSAT assay measures a receptor-mediated loss of contact inhibition that results in selective proliferation of receptor-containing cells in a mixed population of confluent cells. The increase in cell number is assessed with an appropriate transfected marker gene such as β-galactosidase, the activity of which can be easily measured in a 96-well format. Receptors that activate the G protein, Gq, elicit this response. Alpha2 receptors, which normally couple to Gi, activate the RSAT response when coexpressed with a hybrid Gq protein that has a Gi receptor recognition domain, called Gq/i5^2.
(§3) NIH-3T3 cells are plated at a density of 2×10^6 cells in 15 cm dishes and maintained in Dulbecco's modified Eagle's medium supplemented with 10% calf serum. One day later, cells are cotransfected by calcium phosphate precipitation with mammalian expression plasmids encoding p-SV-β-galactosidase (5-10 μg), receptor (1-2 μg) and G protein (1-2 μg). 40 μg salmon sperm DNA may also be included in the transfection mixture. Fresh media is added on the following day and 1-2 days later, cells are harvested and frozen in 50 assay aliquots. Cells are thawed and 100 μl added to 100 μl aliquots of various concentrations of drugs in triplicate in 96-well dishes. Incubations continue 72-96 hr at 37°. After washing with phosphate-buffered saline, β-galactosidase enzyme activity is determined by adding 200 μl of the chromogenic substrate (consisting of 3.5 mM o-nitrophenyl-β-D-galactopyranoside and 0.5% nonidet P-40 in phosphate buffered saline), incubating overnight at 30 and measuring optical density at 420 nm. The absorbance is a measure of enzyme activity, which depends on cell number and reflects a receptor-mediated cell proliferation. The EC50 and maximal effect of each drug at each alpha2 receptor is determined. The efficacy or intrinsic activity is calculated as a ratio of the maximal effect of the drug to the maximal effect of a standard full agonist for each receptor subtype. Brimonidine, also called […], the chemical structure of which is shown below, is used as the standard agonist for the alpha2A, alpha2B and alpha2C receptors. [drawing 6]
The results of the RSAT assay with several exemplary compounds of the invention are disclosed in Table 3. […] NA stands for “not active” at concentrations less than 10 micromolar. […]

In another data set the target is T2, alpha2C receptor (Homo sapiens, UniProt P18825).
T2 construct: expressed in transfected cells; host or cells: NIH-3T3
T2 sequence (P18825 1-462): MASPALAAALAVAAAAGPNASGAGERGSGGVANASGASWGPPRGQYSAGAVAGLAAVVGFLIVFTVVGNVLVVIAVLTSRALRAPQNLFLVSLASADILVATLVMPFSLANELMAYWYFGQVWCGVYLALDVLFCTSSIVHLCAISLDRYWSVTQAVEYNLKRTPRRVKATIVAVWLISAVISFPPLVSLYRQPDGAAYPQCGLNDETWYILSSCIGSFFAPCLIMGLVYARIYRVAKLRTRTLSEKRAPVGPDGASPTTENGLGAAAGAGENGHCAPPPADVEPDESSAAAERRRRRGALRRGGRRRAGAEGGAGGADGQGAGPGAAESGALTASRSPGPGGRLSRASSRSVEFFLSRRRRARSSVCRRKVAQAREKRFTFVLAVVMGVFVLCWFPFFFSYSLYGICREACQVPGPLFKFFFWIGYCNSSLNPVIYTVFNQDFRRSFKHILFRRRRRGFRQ
The experiment in a line: Receptor Selection and Amplification Technology (RSAT) assay, alpha2C. The class given is cell-based. The following applies: NIH-3T3 cells; for EC50: NA = not active at concentrations less than 10 micromolar, read-out: RSAT EC50 (nM) Alpha 2C; for fraction of activity of the standard (brimonidine) attained, Alpha 2C (number in parenthesis): ratio of maximal effect to that of standard full agonist brimonidine.
Description: as §1, §2, §3
(§4) The results of the RSAT assay with several exemplary compounds of the invention are disclosed in Table 3. […] NA stands for “not active” at concentrations less than 10 micromolar. As is known EC50 is the concentration at which half of a given compound's maximal activity is observed. It can be seen from the table that the compounds of the invention are specific or selective agonists of α2B and/or α2C adrenergic receptors, with no agonist like activity or only with insignificant agonist-like activity on α2A receptors.

The target of a further data set is T3, alpha2B receptor (Homo sapiens, UniProt P18089).
T3 construct: expressed in transfected cells; host or cells: NIH-3T3
T3 sequence (P18089 1-450): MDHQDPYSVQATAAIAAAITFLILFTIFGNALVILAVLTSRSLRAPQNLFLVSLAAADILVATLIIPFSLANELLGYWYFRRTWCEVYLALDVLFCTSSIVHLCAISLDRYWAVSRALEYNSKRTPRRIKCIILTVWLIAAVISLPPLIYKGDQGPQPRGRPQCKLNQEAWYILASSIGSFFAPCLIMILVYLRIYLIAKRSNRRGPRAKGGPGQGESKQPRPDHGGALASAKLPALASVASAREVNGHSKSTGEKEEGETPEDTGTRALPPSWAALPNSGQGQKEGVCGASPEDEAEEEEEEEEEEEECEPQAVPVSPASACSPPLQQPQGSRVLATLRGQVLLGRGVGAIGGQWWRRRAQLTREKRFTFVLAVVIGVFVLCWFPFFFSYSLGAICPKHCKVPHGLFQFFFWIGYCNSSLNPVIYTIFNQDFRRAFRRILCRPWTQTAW
The experiment in a line: Receptor Selection and Amplification Technology (RSAT) assay, alpha2B. Type of data set: cell-based. The following applies: NIH-3T3 cells; for EC50: NA = not active at concentrations less than 10 micromolar, read-out: RSAT EC50 (nM) Alpha 2B; for fraction of activity of the standard (brimonidine) attained, Alpha 2B (number in parenthesis): ratio of maximal effect to that of standard full agonist brimonidine.
Description: as §1, §2, §3, §4

The subject of data set [1] is rats with ligated L5 and L6 spinal nerves. The experiment in a line: Alleviation of chronic pain: tactile allodynia after L5/L6 spinal nerve ligation (von Frey hairs). The class given is in vivo, rat. The following applies: 30 minutes after administration, ±SEM. An excerpt: A model for chronic pain (in particular peripheral neuropathy such as causalgia) involves the surgical ligation of the L5 (and optionally the L6) spinal nerves on one side in experimental animals. Rats recovering from the surgery gain weight and display a level of general activity similar to that of normal rats. However, these rats develop abnormalities of the foot, wherein the hindpaw is moderately everted and the toes are held together. More importantly, the hindpaw on the side affected by the surgery appears to become sensitive to pain from low-threshold mechanical stimuli, such as that producing a faint sensation of touch in a human, within about 1 week following surgery. This sensitivity to normally non-painful touch is called “tactile allodynia” and lasts for at least two months. The response includes lifting the affected hindpaw to escape from the stimulus, licking the paw and holding it in the air for many seconds. None of these responses is normally seen in the control group.
Rats are anesthetized before surgery. The surgical site is shaved and prepared either with betadine or Novacaine. Incision is made from the thoracic vertebra XIII down toward the sacrum. Muscle tissue is separated from the spinal vertebra (left side) at the L4-S2 levels. The L6 vertebra is located and the transyerse process is carefully removed with a small rongeur to expose the L4-L6 spinal nerves. The L5 and L6 spinal nerves are isolated and tightly ligated with 6-0 silk thread. The same procedure is done on the right side as a control, except no ligation of the spinal nerves is performed. A complete hemostasis is confirmed, then the wounds are sutured. A small amount of antibiotic ointment is applied to the incised area, and the rat is transferred to the recovery plastic cage under a regulated heat-temperature lamp. On the day of the experiment, at least seven days after the surgery, typically six rats per test group are administered the test drugs by intraperitoneal (i.p.) injection or oral gavage. For i.p. injection, the compounds are formulated in approximately 10 to 50% DMSO and given in a volume of 1 ml/kg body weight.
Tactile allodynia is measured prior to and 30 minutes after drug administration using von Frey hairs that are a series of fine hairs with incremental differences in stiffness. Rats are placed in a plastic cage with a wire mesh bottom and allowed to acclimate for approximately 30 minutes. The von Frey hairs are applied perpendicularly through the mesh to the mid-plantar region of the rats' hindpaw with sufficient force to cause slight buckling and held for 6-8 seconds. The applied force has been calculated to range from 0.41 to 15.1 grams. If the paw is sharply withdrawn, it is considered a positive response. A normal animal will not respond to stimuli in this range, but a surgically ligated paw will be withdrawn in response to a 1-2 gram hair. The 50% paw withdrawal threshold is determined using the method of Dixon, […]. The post-drug threshold is compared to the pre-drug threshold and the percent reversal of tactile sensitivity is calculated based on a normal threshold of 15.1 grams. The results are expressed in per cent (%) MPE, where the MPE value reflects the percentage reversal of pain threshold to that of a normal animal (100%). Table 4 below indicates results of this test with Compounds 8, 34 and 40 of the invention, administered i.p., in intrathecal and oral doses.

For the next data set, the system named is male Sprague-Dawley rats. Description: Sedative activity (exploratory behavior after i.p. injection). The following applies: rat, intraperitoneally, up to a dose of 300 μg/kg. The class given is in vivo. The method, then: To test sedation, six male Sprague-Dawley rats are given up to 3 mg/kg of the test compound in a saline or DMSO vehicle by intraperitoneal injection (i.p.). Sedation is graded 30 minutes following administration of the drug by monitoring locomotor skills as follows.
The Sprague-Dawley rats are weighed and 1 ml/kg body weight of an appropriate concentration (ie. 3 mg/ml for a final dose of 3 mg/kg) drug solution is injected intraperitoneally. Typically the test compound is formulated in approximately 10 to 50% DMSO. The results are compared to controls that are injected with 1 ml/kg saline or 10 to 50% DMSO. Rat activity is then determined 30 minutes after injection of the drug solution. Rats are placed in a dark covered chamber and a digicom analyzer (Omnitech Electronic) quantitates their exploratory behavior for a five-minute period. The machine records each time the rat interrupts an array of 32 photoelectric beams in the X and Y orientation.

For orientation: EC50 means the concentration that produces a half-maximal response. On to `CC[C@H]1CCCC[C@@H]1NC(=S)NCCO` (relative stereo) [Compound 37, 1-(trans-2-Ethyl-cyclohexyl)-3-(2-hydroxy-ethyl)-thiourea], for which, at alpha2A receptor, the EC50 amounted to 14 nM and the “fraction of activity of the standard (brimonidine) attained, Alpha 2A (number in parenthesis)” value was “(0.4)”. On alpha2C receptor, the EC50 came out at 106 nM and the “fraction of activity of the standard (brimonidine) attained, Alpha 2C (number in parenthesis)” value (shortened to “fraction … Alpha 2C (number in parenthesis)”) was “(0.4)”. For the same compound, on alpha2B receptor, the EC50 is 2 nM and the “fraction of activity of the standard (brimonidine) attained, Alpha 2B (number in parenthesis)” value (“fraction … Alpha 2B (number in parenthesis)” for short) is on record as “(0.93)”.
On to `CC1=C(C)C(NC(=S)NCCO)CC1` (stereo not drawn) [Compound 15, 1-(2,3-Dimethyl-cyclopent-2-enyl)-3-(2-hydroxy-ethyl)-thiourea], for which, on alpha2A receptor, the EC50 was determined as 515 nM and the “fraction of activity of the standard (brimonidine) attained, Alpha 2A (number in parenthesis)” value was “(0.4)”. Also, at alpha2C receptor, the EC50 is 197 nM and the “fraction … Alpha 2C (number in parenthesis)” value is reported as “(0.4)”. At alpha2B receptor, the EC50 turned out to be 5 nM and the “fraction … Alpha 2B (number in parenthesis)” value is given as “(1.08)”.
Turning to `CCC1=CCCCC1NC(=S)NCCO` (stereo not drawn) [Compound 34, 1-(2-Hydroxy-ethyl)-3-(2-ethyl-cyclohex-2-enyl)-thiourea], the EC50 was 59 nM at alpha2C receptor and 11 nM at alpha2B receptor. Moreover, the “fraction … Alpha 2C (number in parenthesis)” value on alpha2C receptor is given as “(0.62)”. Besides, the “fraction … Alpha 2B (number in parenthesis)” value at alpha2B receptor is recorded as “(0.88)”. Further, the “% MPE” value was 0.4 ± 1.0 % MPE in data set [1] (IP dose 10 μg/kg), 48 ± 6.1 % MPE in data set [1] (IP dose 30 μg/kg), 66 ± 11 % MPE in data set [1] (IP dose 100 μg/kg) and 96 ± 3.7 % MPE in data set [1] (IP dose 300 μg/kg).
For the compound `C[C@H]1CC[C@H](NC(=S)NCCO)CC1` [Compound 40, 1-(2-Hydroxy-ethyl)-3-(4-methyl-cyclohexyl)-thiourea], in the data set on male Sprague-Dawley rats, the sedative effect entry is “no sedative effect”. Moreover, the EC50 at alpha2B receptor is 57 nM. In addition, the “fraction … Alpha 2B (number in parenthesis)” value at alpha2B receptor was “(0.62)”. In addition, the “% MPE” value in data set [1] (IP dose 10 μg/kg) is 0.1 ± 1.8 % MPE; in data set [1] (IP dose 30 μg/kg), 42 ± 9.2 % MPE; in data set [1] (IP dose 100 μg/kg) it was 46 ± 7.1 % MPE; in data set [1] (IP dose 300 μg/kg) it was 77 ± 8.0 % MPE; in data set [1] (IP dose 1000 μg/kg), 83 ± 7.0 % MPE; in data set [1] (IP dose 3000 μg/kg) it was 90 ± 6.1 % MPE. Also, the “% MPE” value in data set [1] (Oral dose 1000 μg/kg) came to 80 ± 6.1 % MPE.
